These results are taken from US7312339B2, “Polyene oxazoles and processes for their preparation” (Thallion Pharmaceuticals Inc., priority 2003, dated 2007).

Molecules are shown by their SMILES.

The subject of data set [1] is A498 (renal/human). Nature of the data set: In vitro cytotoxicity (MTT cell survival), A498. In kind it is cell-based. The following applies: A498, 96 h exposure; for IC50: Homo sapiens, mean from 3 independent experiments. As for the experimental part:
(§1) Cells were passaged two to three times per week. Cellular viability was examined by staining with trypan blue and only flasks where cell viability was >95% were used to determine cytotxicity.
(§2) Exponentially growing cells (1-3×10^3 cells per 100 μl) were seeded in 96-well plates and incubated for 16 h. Cells were then exposed continuously to various concentrations of compounds of Formula I in serum-supplemented medium. Cell survival was evaluated 96 h later by replacing the culture media with 150 μl fresh medium containing 10 mM 4-(2-hydroxyethyl)-1-piperazineethanesulfonic acid buffer, pH 7.4. Next, 50 μl of 2.5 mg/ml of 3-(4,5-dimethylthiazo-2-yl)-2,5-diphenyltetrazolium bromide (MTT; Sigma, St. Louis, Mo.) in phosphate buffer solution, pH 7.4, was added. After 3-4 h of incubation at 37° C., the medium and MTT was removed, and 200 μl of dimethylsulfoxide was added to dissolve the precipitate of reduced MTT followed by addition of 25 μl glycine buffer (0.1 M glycine plus 0.1 M NaCl, pH 10.5). The absorbance was determined at 570 nm with a microplate reader (BIORAD). Cell survival was estimated as % of cells treated with the vehicle alone.

Data set [2] concerns SF-295 (glioblastoma/human). Put plainly: In vitro cytotoxicity (MTT cell survival), SF-295. Format: cell-based. The conditions noted are these: SF-295, 96 h exposure; for IC50: Homo sapiens. The procedure: as §1, §2
The subject of data set [3] is B16 (melanoma/mouse). Put plainly: In vitro cytotoxicity (MTT cell survival), B16. Format: cell-based. The conditions noted are these: B16, 96 h exposure; for IC50: Mus musculus. As for the experimental part:
as §1, §2

Data set [4] relates to T24 (bladder/human). Nature of the data set: In vitro cytotoxicity (MTT cell survival), T24. In kind it is cell-based. The following applies: T24, 96 h exposure; for IC50: Homo sapiens. The procedure:
as §1, §2

Data set [5] deals with HRE (renal/normal, human). Nature of the data set: In vitro cytotoxicity (MTT cell survival), HRE. In kind it is cell-based. The conditions noted are these: HRE normal renal cells, 96 h exposure. The procedure:
as §1, §2

The nature of data set [6]: In vitro cytotoxicity (MTT cell survival), HRE. In kind it is cell-based, human. The conditions noted are these: human, HRE normal renal cells, 96 h exposure. As for the experimental part: as §1, §2
Data set [7] deals with MDA-MD-231 (breast/human). Nature of the data set: In vitro cytotoxicity (MTT cell survival), MDA-MD-231. The following applies: MDA-MD-231, 96 h exposure; for IC50: Homo sapiens, mean from 3 independent experiments. In kind it is cell-based. The procedure: as §1, §2
Data set [8] concerns P388 (leukemia/mouse). Put plainly: In vitro cytotoxicity (MTT cell survival), P388. In kind it is cell-based. The following applies: P388, 96 h exposure; for IC50: Mus musculus. The procedure: as §1, §2
For data set [9], the system named is PC3 (prostate/human). Nature of the data set: In vitro cytotoxicity (MTT cell survival), PC3. Format: cell-based. The following applies: PC3, 96 h exposure; for IC50: Homo sapiens, mean from 3 independent experiments. The procedure: as §1, §2
The subject of data set [10] is EKVX (lung/human). Nature of the data set: In vitro cytotoxicity (MTT cell survival), EKVX. Format: cell-based. The conditions noted are these: 96 h exposure; for IC50: Homo sapiens. As for the experimental part:
as §1, §2

The subject of data set [11] is HCT116 (colon/human). Nature of the data set: In vitro cytotoxicity (MTT cell survival), HCT116. Format: cell-based. The conditions noted are these: for In Vitro Cytotoxicity Data (Log M): HCT116, 96 h exposure; for IC50: Homo sapiens, HCT-116, HCT116, 96 h exposure, mean from 3 independent experiments. As for the experimental part:
as §1, §2

Usually IC50 stands for the concentration at which inhibition is half-maximal. A low value points to greater potency in that assay. Consider `COC(=O)C(C(C)OC)N(C)C(=O)C1(N(O)C(=O)/C=C/C=C/C=C/C=C\CNC(=O)C(C)(C)C(O)\C(C)=C/C=C\C=C\Cc2cnco2)COCO1` (stereo not shown) [Compound 1], for which the “In Vitro Cytotoxicity Data (Log M)” value was “(Log −4.78 M) Log M” in data set [1]; “(Log −4.56 M) Log M” in data set [2]; “(Log −4.34 M) Log M” in data set [3]; “(Log −4.51 M) Log M” in data set [4]; “(Log −5.05 M) Log M” in data set [5]; “(Log −4.88 M) Log M” in [7]. Moreover, the “In Vitro Cytotoxicity Data (Log M)” value in data set [8] is on record as “(Log −5.19 M) Log M”; in data set [9] it was “(Log −4.69 M) Log M”; in data set [10] it was “(Log −4.42 M) Log M”; in [11], “(Log −4.60 M) Log M”. Further, the IC50 in data set [1] stood at 15.6 µM; in data set [2], 27.1 µM; in data set [3], 44.8 µM; in [4], 30.5 µM; in data set [7] it was 12.9 µM; in data set [8], 6.3 µM. In addition, the 50% inhibitory concentration (IC50) in data set [9] was 20.7 µM; in data set [10], 37.4 µM; in data set [11], 24.8 µM. In data set [6], 8.8 µM corresponded to half-maximal inhibition (IC50 at 96 h).

In the case of `COC(=O)C(C(C)OC)N(C)C(=O)C1(N(O)C(=O)/C=C/C=C/C=C/C=C\CNC(=O)C(C)(C)C(O)\C(C)=C/C=C\C=C\Cc2cnc(C)o2)COCO1` (stereo not shown) [Compound 2], the “In Vitro Cytotoxicity Data (Log M)” value is recorded as “(Log −4.88 M) Log M” in data set [1]; “(Log −4.75 M) Log M” in data set [2]; “(Log −4.34 M) Log M” in data set [3]; “(Log −4.72 M) Log M” in [4]; “(Log −4.69 M) Log M” in data set [5]; “(Log −4.88 M) Log M” in [7]. Also, the “In Vitro Cytotoxicity Data (Log M)” value in data set [8] is given as “(Log −5.05 M) Log M”; in data set [9], “(Log −4.67 M) Log M”; in data set [10] it was “(Log −4.62 M) Log M”; in [11] it was “(Log −4.56 M) Log M”. The IC50 in [1] amounted to 13.1 µM; in [2], 17.5 µM; in data set [3] it was 45.5 µM; in data set [4], 18.9 µM; in data set [7], 13.2 µM; in data set [8], 8.1 µM. Moreover, the concentration for half-maximal inhibition (IC50) in data set [9] amounted to 20.7 µM; in [10] it was 23.9 µM; in data set [11], 27.5 µM. Besides, the IC50 at 96 h in data set [6] came out at 20.2 µM.
